{"source": "patent US10022357B2", "about": "“Amyloid precursor protein MRNA blockers for treating Down syndrome and Alzheimer's disease” (THE GENERAL HOSPITAL CORPORATION, priority 2013, dated 2018)", "key": {"APP 5′UTR": {"system": "APP 5′UTR", "assay_type": "cell-based, human", "protocol": "The LDDN library had already yielded small molecules that inhibit mesangial cell proliferation, following three-dimensional pharmacophore modeling and screening. A second Molecular Libraries Screening Centers Network HTS was conducted at the Columbia University Genome Center to generate hits as listed on PUBCHEM (AID: 1285), from which the dose-response assays identified 50 lead APP 5′UTR-directed luciferase reporter inhibitors. […] These were directly measured and found not to inhibit luciferase enzyme activity. […] These thirteen leads were tricyclic aromatic compounds that included two major classes of hits: compounds with a benzimidazole backbone, i.e. APP blockers 2, −7, and −9 (JTR-009) and compounds with a benzothiazole backbone, i.e. APP blockers −8 and −13. The compounds with a benzothiazole backbone were also identified to be similar to PFTα, another benzothiazole, and P53 inhibitor, by showing protection against oxidative injuries in synaptosomes from wild-type mice and preserving presynaptic terminals in cultured hippocampal neurons exposed to etoposide).\nAPP 5′UTR-Luciferase inhibitor compounds obtained from the preliminary HTS of pIRES-APP-5′UTR transfectants were picked, and the dose-response assays were conducted at 0.1, 1.0, and 5.0 μM (based on the exact molecular weights of the compounds). […] Each hit was added in 5 wells, and this was repeated twice on 2 different days. There was a positive control and negative control column of cells as previously described.\nTo identify APP 5′UTR-specific translation blockers from LDDN Harvard (see ref [21]) and from the Columbia University Genome center, the inventors then counter-screened against the PrP 5′UTR and shortlisted thirteen potent inhibitors to be further characterized. In FIG. 1D, the listed constructs were employed to conduct these transfection based assays to ensure that the 13 APP specific leads were not also PrP inhibitors. Table 1 lists the IC50 of each of these inhibitors with respect to their dose-responsive capacity to reduce APP 5′UTR-driven luciferase expression relative to their IC50 values against PrP 5′UTR expression."}, "APP mRNA": {"system": "APP mRNA", "assay_type": "cell-based, human", "protocol": "(§1) qRT-PCR was conducted to measure the capacity of JTR-009 to change steady state levels of […] levels, as was previously described (see Ref [6]). Desferrioxamine treatment was used for a positive control to assess changes to the steady state levels of both APP mRNA and transferrin receptor mRNAs. Primers for β-actin were employed as a control for an mRNA previously shown to be unchanged by desferrioxamine and other inducers. Experiments were carried out on the ABI Prism 7000 sequence detection system (Applied Biosystems). […] The primers to β-actin, TfR1 were designed and ordered from Invitrogen. The APP primer set was purchased from Qiagen and has been benchmarked on several reports for accurate measurement of APP mRNA levels."}, "IRP1 binding to APP IRE": {"system": "IRP1 binding to APP IRE", "assay": "Biotinylated RNA pulldown assay, IRP1 binding to APP IRE probe", "set-up": "species or system human", "protocol": "(§2) Biotinylated RNA oligonucleotides: […] Paramagnetic streptavidin-conjugated Dynabeads (Invitrogen) were washed with ribonucleoprotein immunoprecipitation buffer, added into lysates to bind IRP(1/2)-biotinylated-RNA complexes, and incubated for 1 hour at room temperature. After five washes, the proteins that bound to the beads were analyzed by Western blotting for IRP1, IRP2, and biotin. […] The IREs-bound IRPs were quantified by Quantity One® software (Bio-Rad)."}, "[1]": {"system": "IRP1 and IRP2 binding to H-ferritin IRE", "assay": "Biotinylated RNA pulldown assay, IRP1/IRP2 binding to H-ferritin IRE probe", "set-up": "species or system human", "settings": "same conditions as APP IRE pulldown", "protocol": "as §2"}, "APP and amyloid-beta [2]": {"system": "APP and amyloid-beta", "assay_type": "cell-based", "settings": "Table 2; printed in brackets as max; read-out: APP and amyloid-beta Inhibition (IC50), max"}, "PrP 5′UTR": {"system": "PrP 5′UTR", "assay": "cells", "settings": "Homo sapiens, SH-SY5Y, read-out: IC50 to reduce 5′UTR driven luciferase expression in pIRES-PrP-5′UTR transfectants"}, "APP [3]": {"system": "APP", "procedure": "After cells were exposed to increasing concentrations of the compounds as outlined in each figure legend, cytoplasmic protein lysates were prepared by homogenizing the cells in midRIPA buffer (25 mM Tris pH 7.4, 1% NP40, 0.5% sodium deoxycholate, 15 mM NaCl, protease inhibitors, RNase inhibitor and 10 μM DTT). Western blotting for APP was performed using the N-terminal 22C11 antibody (Millipore, Inc) and the A8717 C-terminal specific APP antibody (Sigma, inc), while αsyn was detected using mouse monoclonal anti-αsyn (BD Transduction Laboratories) and anti-β-actin (Chemicon). The blots were developed using chemiluminescence (PIERCE, Rockford, Ill.) and visualized with a Phosphoimager (BioRad, Hercules, Calif.). The bands were quantified using QuantityOne® software (BioRad)."}, "α-synuclein (SNCA)": {"system": "α-synuclein (SNCA)", "assay": "Western blot of α-synuclein levels in primary mouse neurons", "procedure": "Primary cortical neurons from wild type mice and from the PAC-Tg(SNCA(wt) human SNCA genomic mice [22] were cultured as outlined by the method of Ray et al., 2009 [23]. The embryonic (E15-18) pups were recovered after sacrificing pregnant females, separated out the brain, and removed the meninges and blood vessels. The cortices were then dissected out and placed them in separate Eppendorf tubes containing 500 uL of HBSS without Ca+^2/Mg^+2 salts supplemented with 1 mM sodium pyruvate and 10 mM HEPES, pH 7.4. On ice, individual cells were isolated by titrating 10 times using a glass pasture pipette with the tip barely fire polished. The volume was adjusted to 1.5 mL, by adding 1 mL of HBSS with Ca^+2/Mg^+2 salts+Na. pyruvate+HEPES, restoring the divalent cations by adding HBSS so that the non-dispersed tissue could settle for 5 min, on ice. In the tissue culture laminar hood, the supernatant was transferred into a new 15 mL tube and centrifuged for 1 minute at 900 rpm, 4° C. The pellet was gently re-suspended in 2 mL of HBSS with Ca^+2/Mg^+2 salts+Na pyruvate+HEPES and took an aliquot for counting (2 mL for approx 5 embryos). The cells were then plated at ˜1×10^5 cells/well of a 24 well or 2×10^5/in 12 well plates. Each set of plates was coated with poly D-lysine containing poly L-lysine coverslips for micro immuncytochemical confirmation of neuronal integrity.\n(§3) After cells were exposed to increasing concentrations of the compounds as outlined in each figure legend, cytoplasmic protein lysates were prepared by homogenizing the cells in midRIPA buffer (25 mM Tris pH 7.4, 1% NP40, 0.5% sodium deoxycholate, 15 mM NaCl, protease inhibitors, RNase inhibitor and 10 μM DTT). Western blotting for APP was performed using the N-terminal 22C11 antibody (Millipore, Inc) and the A8717 C-terminal specific APP antibody (Sigma, inc), while αsyn was detected using mouse monoclonal anti-αsyn (BD Transduction Laboratories) and anti-β-actin (Chemicon). […] The bands were quantified using QuantityOne® software (BioRad)."}, "APP [4]": {"system": "APP", "assay": "Western blot of APP levels in primary mouse cortical neurons", "procedure": "Primary cortical neurons from wild type mice and from the PAC-Tg(SNCA(wt) human SNCA genomic mice [22] were cultured as outlined by the method of Ray et al., 2009 [23]. The embryonic (E15-18) pups were recovered after sacrificing pregnant females, separated out the brain, and removed the meninges and blood vessels. The cortices were then dissected out and placed them in separate Eppendorf tubes containing 500 uL of HBSS without Ca+^2/Mg^+2 salts supplemented with 1 mM sodium pyruvate and 10 mM HEPES, pH 7.4. On ice, individual cells were isolated by titrating 10 times using a glass pasture pipette with the tip barely fire polished. […]\nas §3"}, "TfR mRNA": {"system": "TfR mRNA", "assay_type": "cell-based, human", "settings": "iron chelation, 25 μM, positive control", "protocol": "as §1"}, "APP and amyloid-beta [5]": {"system": "APP and amyloid-beta", "settings": "Table 2; Refs 27, 33; read-out: APP and amyloid-beta Inhibition (IC50); cited from earlier work"}}, "note": "“Also recorded” adds a separate entry of the source. Where two headings read alike, the source gives them in different places."}
{"smiles": "COc1cc(SC)ccc1C(=O)Nc1nc2ccccc2[nH]1", "note": "[BL-1]", "values": [{"measurement": "concentration to inhibit APP 5′UTR conferred translation, times less than strophanthidin", "setting": "APP 5′UTR; FIG. 8, relative to strophanthidin", "value": 500, "unit": "times"}]}
{"smiles": "Cc1ccc2[nH]c(-c3ccc(N)cc3)nc2c1", "note": "[JTR-009, 4-(5-methyl-1H-benzimidazol-2yl) aniline]", "values": [{"measurement": "reduction of APP 5′UTR activity", "setting": "APP 5′UTR; 0.1 μM drug, N=4", "value": "two-fold"}, {"measurement": "IC50", "setting": "APP 5′UTR; Homo sapiens, SH-SY5Y, 384-plate assays, inhibition curves, first IC50 line of Table 1, read-out: IC50 to reduce 5′UTR driven luciferase expression in pIRES-APP-5′UTR transfectants", "value": 400, "unit": "nM"}, {"measurement": "IC50", "setting": "APP 5′UTR; Homo sapiens, SH-SY5Y, FIG. 4A, dose response, N=4, read-out: IC50 to limit APP 5′UTR-luciferase expression", "value": 100, "unit": "nM"}, {"measurement": "IC50", "setting": "APP 5′UTR; Homo sapiens, SH-SY5Y, Table 2, read-out: APP 5′UTR Inhibition (IC50)", "value": 100, "unit": "nM"}, {"measurement": "IC50", "setting": "APP 5′UTR; Homo sapiens, SH-SY5Y, dose-responsive measurements, range, read-out: IC50 against the APP 5′UTR", "value": "1 to 100", "unit": "nM"}, {"measurement": "fold more potent/effective than posiphen to limit APP 5′UTR driven translation", "setting": "APP 5′UTR; relative to posiphen, listed as Formula I", "value": "about 10 fold"}, {"measurement": "APP mRNA levels", "setting": "APP mRNA; 0.1 nM to 10 μM drug, N=4", "value": "unchanged"}, {"measurement": "increase of APP mRNA levels", "setting": "APP mRNA; 100 μM", "value": "~10", "unit": "%"}, {"measurement": "reduction of IRP1 binding to biotinylated APP IRE RNA probes", "setting": "IRP1 binding to APP IRE; 0.3 μM, N=7", "value": 20, "unit": "%"}, {"measurement": "fold reduction of IRP1 binding to the APP IRE", "setting": "IRP1 binding to APP IRE; 3 μM, 48 hour exposure", "value": 2, "unit": "fold"}, {"measurement": "reduction of IRP1 binding to biotinylated APP IRE RNA probes", "setting": "IRP1 binding to APP IRE; 3 μM, N=7", "value": 50, "unit": "%"}, {"measurement": "IRP1 binding to biotinylated APP IRE RNA probes", "setting": "IRP1 binding to APP IRE; 30 μM, N=7", "value": "completely inhibited"}, {"measurement": "IRP1/IRP2 binding to H-ferritin IRE probes", "setting": "[1]", "value": "always maintained; also recorded: no inhibitory change"}, {"measurement": "IC50", "setting": "APP and amyloid-beta [2]", "value": 10, "unit": "nM"}, {"measurement": "IC50", "setting": "PrP 5′UTR", "value": 4000, "unit": "nM"}, {"measurement": "concentration that limits APP translation", "setting": "APP [3]", "value": "less than one"}, {"measurement": "reduction of APP in lysate supernatants of RNA pulldown", "setting": "APP [3]; 3 μM", "value": 35, "unit": "%"}, {"measurement": "reduction of APP (densitometry, β-actin standardized)", "setting": "APP [3]; 20 μM, 48 hour treatment", "value": 50, "unit": "%"}, {"measurement": "reduction of APP in lysate supernatants of RNA pulldown", "setting": "APP [3]; 30 μM", "value": 70, "unit": "%"}, {"measurement": "APP levels, percent of control levels", "setting": "APP [3]; 30 μM, 48 hours, N=5", "value": 30, "unit": "%"}, {"measurement": "IC50", "setting": "APP [3]; read-out: IC50 for translational inhibition of APP, dose-responsive assays", "value": "< 1000", "unit": "nM"}, {"measurement": "average pair-wise reduction of SNCA levels (threshold)", "setting": "α-synuclein (SNCA); 0.001 μM, 48 hours", "value": 50, "unit": "%"}, {"measurement": "α-synuclein (SNCA) levels", "setting": "α-synuclein (SNCA); primary mouse neurons, same treatment as APP reduction", "value": "unchanged; also recorded: no significant changes"}, {"measurement": "reduction of APP levels", "setting": "APP [4]; concentrations as low as 10 nM, primary mouse cortical neurons", "value": 60, "unit": "%"}, {"measurement": "lowest dose that inhibited APP levels", "setting": "APP [4]; primary mouse E-18 neurons", "value": 1, "unit": "nM"}]}
{"smiles": "CC(=O)N(O)CCCCCNC(=O)CCC(=O)N(O)CCCCCNC(=O)CCC(=O)N(O)CCCCCN", "note": "[desferrioxamine, reference compound]", "values": [{"measurement": "APP mRNA levels", "setting": "APP mRNA; iron chelation with desferrioxamine", "value": "unchanged"}, {"measurement": "increase of transferrin receptor mRNA levels", "setting": "TfR mRNA", "value": 2, "unit": "fold"}]}
{"smiles": "CN1CC[C@]2(C)c3cc(OC(=O)Nc4ccccc4)ccc3N(C)[C@H]12", "note": "[posiphen, reference compound]", "values": [{"measurement": "increase of APP 5′UTR activity", "setting": "APP 5′UTR; 0.1 μM drug, matched conditions", "value": 15, "unit": "%"}, {"measurement": "IC50", "setting": "APP 5′UTR; FIG. 4A, dose response, N=4, read-out: IC50 to limit APP 5′UTR-luciferase expression", "value": 5000, "unit": "nM"}, {"measurement": "IC50", "setting": "APP and amyloid-beta [5]", "value": 1000, "unit": "nM"}]}
